Each block holds one compound with its values, some of them ahead of it.
Columns and labels:
[1] = biological target: T1, Indoleamine 2,3-dioxygenase 1 (Homo sapiens, UniProt P14902); assay: Inhibition of human IDO1 in HEK293 cells after 20 hrs by plate reader assay; format: cell-based
[2] = biological target: T1, Indoleamine 2,3-dioxygenase 1; assay: Inhibition of human IDO using L-tryptophan as substrate preincubated for 5 mins followed by substrate addition measured after 15 mins by spectrophotometric analysis
[3] = biological target: T1, Indoleamine 2,3-dioxygenase 1; assay: Noncompetitive inhibition of human recombinant IDO1 expressed in Escherichia coli by Michaelis-Menton nonlinear regression plot analysis in presence of L-tryptophan
[4] = biological target: T1, Indoleamine 2,3-dioxygenase 1; assay: Inhibition of IDO (unknown origin)
[5] = biological target: T1, Indoleamine 2,3-dioxygenase 1; assay: Inhibition of N-terminal His-tagged human recombinant IDO1 expressed in Escherichia coli using L-tryptophan as substrate by methylene blue/ascorbate assay
[6] = biological target: T1, Indoleamine 2,3-dioxygenase 1; assay: Inhibition of human recombinant IDO1 using L-tryptophan as substrate after 15 mins by Dixon plot analysis
[7] = biological target: T1, Indoleamine 2,3-dioxygenase 1; assay: Competitive inhibition of 6His-tagged human recombinant IDO expressed in Escherichia coli BL21DE3pLys
[8] = biological target: T1, Indoleamine 2,3-dioxygenase 1; assay: Inhibition of human recombinant IDO1 expressed in yeast IS20-2B using tryptophan as substrate by methylene blue/ascorbate assay
[9] = biological target: T1, Indoleamine 2,3-dioxygenase 1; assay: Inhibition of N-terminal hexa-Histidine tagged human IDO1 expressed in Escherichia coli using L-tryptophan as substrate after 30 mins by HPLC analysis
[10] = Competitive inhibition of rabbit small intestine IDO1 by double reciprocal plot analysis in presence of L-tryptophan; design: species or system Oryctolagus cuniculus
[11] = biological target: T1, Indoleamine 2,3-dioxygenase 1; assay: Inhibition of IFN-gamma-stimulated IDO1 activity in human HeLa cells using L-tryptophan as substrate after 48 hrs by spectrophotometric analysis; format: cell-based
[12] = biological target: T1, Indoleamine 2,3-dioxygenase 1; assay: Inhibition of C-terminal 6His-tagged human IDO using L-tryptophan as substrate preincubated for 5 mins followed by substrate addition measured after 15 mins by spectrophotometric analysis
[13] = biological target: T1, Indoleamine 2,3-dioxygenase 1; assay: Inhibition of 6His-tagged human recombinant IDO1 expressed in Escherichia coli EC 539 using L-tryptophan as substrate after 1 hr by plate reader analysis
[14] = biological target: T1, Indoleamine 2,3-dioxygenase 1; assay: Inhibition of N-terminal His-tagged human recombinant IDO1 expressed in Escherichia coli using L-tryptophan as substrate preincubated for 10 mins followed by substrate addition measured after 30 mins by plate reader analysis
[15] = biological target: T1, Indoleamine 2,3-dioxygenase 1; assay: Inhibition of N-terminal His-tagged human recombinant IDO1 expressed in Escherichia coli using tryptophan as substrate by UV-visible absorption spectroscopy

T1 sequence (P14902 whole entry): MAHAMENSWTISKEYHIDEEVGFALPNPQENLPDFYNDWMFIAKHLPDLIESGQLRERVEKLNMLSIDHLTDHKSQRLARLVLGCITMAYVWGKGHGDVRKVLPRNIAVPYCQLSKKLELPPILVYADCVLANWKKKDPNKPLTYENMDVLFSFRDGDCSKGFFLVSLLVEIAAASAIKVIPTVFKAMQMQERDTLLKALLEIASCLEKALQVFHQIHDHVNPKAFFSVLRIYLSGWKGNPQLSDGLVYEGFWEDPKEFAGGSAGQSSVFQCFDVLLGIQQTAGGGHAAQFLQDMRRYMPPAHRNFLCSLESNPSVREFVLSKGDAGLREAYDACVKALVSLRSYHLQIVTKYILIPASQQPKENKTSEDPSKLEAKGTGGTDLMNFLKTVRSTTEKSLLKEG

IC50 [1]: 5 nM
SMILES: Cc1ccc(CC(=O)Nc2cc(-c3ccccc3-c3nnn[nH]3)ccc2N2CC3CC2CN3Cc2ccccc2)cc1 (stereo not drawn)

IC50 [2]: < 10000 nM
SMILES: NOCc1ccccc1

Ki [3]: 100 nM
SMILES: CC1(C)CCC2=C(O1)c1ccccc1C(=O)C2=O [LAPACHONE]

IC50 [4]: 21000 nM
SMILES: CN1C(=O)c2ccccc2-n2c(nc3ccccc3c2=O)C1[C@H](O)c1ccccc1 (stereo partly drawn)

IC50 [5]: 7700 nM
SMILES: CC1(C)CCC[C@]2(C)[C@H]3CC=C(C=O)CC(O)[C@]3(C=O)CC[C@@H]12 (stereo partly drawn)

Ki [6]: 4300 nM
SMILES: N=C1C=C(N)C(=O)c2[nH]c(=O)ccc21

Ki [7]: 12000 nM
SMILES: CN1C(=O)C(Cc2c[nH]c3ccccc23)NC1=S (stereo not drawn) [NECROSTATIN]

IC50 [1]: 3 nM
SMILES: CCCC(CCC)Oc1c(Br)cc(-c2ccccc2-c2nnn[nH]2)cc1NC(=O)Nc1ccccc1F

Ki [8]: 1500 nM
SMILES: C/N=C(N)/N=C(\N)Nc1cc2ccccc2c2ccccc12

IC50 [9]: < 200 nM
SMILES: N#CC(Nc1ccc(F)c(Cl)c1)c1cc(Cl)ccc1O (stereo not drawn)

Ki [10]: 230000 nM
SMILES: N[C@@H](CC1=CCC=CC1)C(=O)O

IC50 [11]: < 1000 nM
SMILES: CCc1ccccc1Nc1cnn[nH]1

IC50 [12]: < 1000 nM
SMILES: O=C(Cc1ccccc1)Nc1ccc(CCOc2ccccc2-c2cnc[nH]2)cc1

IC50 [4]: 15000 nM
SMILES: COc1cc(OC(=O)c2c(C)c(C)c(OC(=O)c3c(C)cc(O)c(C)c3O)c(C)c2OC)c(C)c(C)c1C(=O)O

IC50 [1]: 3 nM
SMILES: CC(C)CN(CC(C)C)c1ccc(C(CC(=O)O)C(F)(F)F)cc1NC(=O)Nc1ccc(F)cc1F (stereo not drawn)

IC50 [13]: 6000 nM
SMILES: COc1cccc2c1C(=O)C1=C(C[C@H](Cn3cc(-c4ccccc4)nn3)O[C@@H]1C)C2=O

IC50 [14]: 240 nM
SMILES: COC1=CC(=O)c2oc(C)c(CO)c2C1=O

IC50 [15]: < 200 nM
SMILES: Nc1oc2c(-c3ccnc(N4CCOCC4)c3)nccc2c1Nc1ccc(F)c(Cl)c1

Source: ChEMBL document CHEMBL3745640, “Challenges in the Discovery of Indoleamine 2,3-Dioxygenase 1 (IDO1) Inhibitors” (J Med Chem, 2015)
